Molecular target: T1, human 5HT6 receptor (Homo sapiens, UniProt P50406)
T1 construct: expressed in transfected cells
Assay: Functional assay: serotonin-stimulated adenyl cyclase (cAMP EIA) in HEK 293 cells expressing 5HT6
Format: cell-based
Conditions: test compound 100 nM and 10 μM along with serotonin
Procedure: The 5HT6 receptor responds to serotonin and other agonists by increasing adenyl cyclase mediated production of cyclic AMP. Particular test compounds were assayed for their effect on adenyl cyclase activity using the procedure described below.
Compounds acting as antagonists at the 5HT6 receptor will antagonize the agonist effect of serotonin and thus, will block the serotonin-induced increase in adenyl cyclase activity.
HEK 293 cells stably expressing the human 5HT6 receptor were plated in 6 well plates in DMEM (Dulbecco's Modified Eagle Medium)/F12 (Nutrient Mixture F12—Ham) media with 10% FCS (fetal calf serum) and G418 (Geneticen Disulfate, 500 ug/ml), and incubated at 37° C. in a CO2 incubator. The cells were allowed to grow to about 70% confluence before use in the assay.
The culture medium of each well was removed, and the wells were washed once with serum free media. Then 2 ml of SFM+IBMX medium (SFM with 0.5 mM IBMX, 3-isobutyl-1-methylxanthine, 0.1% ascorbic acid and 10 mM pargyline) was added to each well and the wells were incubated at 37° C. for 10 min. Following incubation, the SFM+IBMX medium was removed from each well and fresh SFM+IBMX media was added to the wells separately with one of a) serotonin (1 μM final concentration); b) test compound (100 nM and 10 μM, to test for agonist activity); and c) test compound (100 nM and 10 μM) along with serotonin ([…], to test for antagonist activity). Basal adenyl cyclase activity was determined from wells with only SFM+IBMX media added.
The cells were then incubated at 37° C. for 30 minutes in a CO2 incubator. […] The pellets were discarded and the supernatants were stored at 4° C. until assayed for cAMP concentration. cAMP content for each extract was determined in duplicate by EIA (enzyme-immunoassay) using the Amersham Biotrak cAMP EIA kit (Amersham RPN 225). Final results were expressed as % basal response for agonists and % reversal of serotonin response for antagonists.
The total stimulation of adenyl cyclase by serotonin (So) was determined as the difference in concentration of cAMP in the serotonin-treated cells (Cd) and the basal-treated cells (Cf). […]
The net stimulation (S) of basal adenyl cyclase by an agonist test compound was determined as the difference in cAMP concentration in the drug-treated cell (C) and the basal-treated cells (Cf). […]
The net stimulation (Ss) of basal adenyl cyclase by serotonin in the presence of an antagonist test compound was determined as the difference in cAMP concentration in the serontonin-drug-treated cells (Cs) and the basal-treated cells (Cf). […]
The ability of the antagonist test compound to reverse the serotonin stimuation of adenyl cyclase activity (% reversal, % R) was determined by the formula: % R=(1−Ss/So)×100

T1 sequence (P50406 whole entry): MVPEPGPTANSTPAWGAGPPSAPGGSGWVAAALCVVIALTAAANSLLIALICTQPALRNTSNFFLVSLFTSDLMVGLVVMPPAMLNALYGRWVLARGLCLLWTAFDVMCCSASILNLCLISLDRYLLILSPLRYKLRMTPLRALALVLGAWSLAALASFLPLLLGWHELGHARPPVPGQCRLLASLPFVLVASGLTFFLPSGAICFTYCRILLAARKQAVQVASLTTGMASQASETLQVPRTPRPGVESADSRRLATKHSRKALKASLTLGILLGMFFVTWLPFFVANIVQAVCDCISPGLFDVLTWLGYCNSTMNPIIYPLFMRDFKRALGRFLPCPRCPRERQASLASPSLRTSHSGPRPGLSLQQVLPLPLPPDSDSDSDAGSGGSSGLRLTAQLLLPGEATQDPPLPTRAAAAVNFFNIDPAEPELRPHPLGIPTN

| Compound | reversal of serotonin stimulation of adenyl cyclase (antagonist activity) |
| --- | --- |
| O=S(=O)(c1cccc2ccccc12)n1cc(C2=CCN3CCCC3C2)c2cnccc21 (stereo not shown) [3-(1,2,3,5,8,8a-Hexahydro-7-indolizinyl)-1-(1-naphthalenesulfonyl)-5-azaindole] | able to reverse the serotonin stimulation of adenyl cyclase |
| O=S(=O)(c1cccc2ccccc12)n1cc(C2=CCN3CCCC3C2)c2cccnc21 (stereo not shown) [3-(1,2,3,5,8,8a-Hexahydro-7-indolizinyl)-1-(1-naphthalenesulfonyl)-7-azaindole] | able to reverse the serotonin stimulation of adenyl cyclase |
| O=S(=O)(c1ccccc1)n1cc(C2=CCN3CCCC3C2)c2cnccc21 (stereo not shown) [3-(1,2,3,5,8,8a-Hexahydro-7-indolizinyl)-1-benzenesulfonyl-5-azaindole] | able to reverse the serotonin stimulation of adenyl cyclase |
| O=S(=O)(c1ccccc1)n1cc(C2=CCN3CCCC3C2)c2cccnc21 (stereo not shown) [3-(1,2,3,5,8,8a-Hexahydro-7-indolizinyl)-1-benzenesulfonyl-7-azaindole] | able to reverse the serotonin stimulation of adenyl cyclase |
